# What was measured:
# black cutworms [1] = experiment: Cutworm mortality and residual control, leaf feeding bioassay on leaves from treated corn seed (Table 3); assay type: in vivo, Agrotis ipsilon
# Method: (§1) Efficacy of chlorantraniliprole against high pressure of black cutworms, and plant stand protection (15 DAP) was tested (FIG. 5). In addition, efficacy of chlorantraniliprole for healthier stand and longer seedling protection against black cutworms (9 DAI) was also tested (FIG. 6). See also Tables 3 and 4 for increased mortality rates of cutworms with chlorantraniliprole alone and in combination with other insecticides. Mortality of 3rd instar black cutworms, which were exposed to corn leaf samples in in-vivo leaf feeding bioassays, was recorded at specific evaluation dates. The leaf samples were collected from treated corn seed according to the treatment in Tables 3-4.
# (§2) All treatments included a combination of fungicides (Fludioxonil, Mefenoxam, Azoxystrobin, Thiabendazole). Soil Texture was fine clay loam; insect species: Agrotis ipsilon; infestation: 2, 3rd instar larva/plant; Plot size: 6 rows×20 feet; Seeding rate: 39,000/acre; Experimental design: Randomized Complete Block (RCB); 9 trtms×4 rep.
# black cutworms [2] = experiment: Black cutworm mortality after 10 DAI, leaf feeding bioassay (Table 4); assay type: in vivo, Agrotis ipsilon
# Method: as §1
# wireworm [3] = experiment: Corn yield, stand and runts on fields with wireworm pressure (Tables 5, 6); assay type: in vivo; conditions: for Yield bu/ac: 250 μg AI/seed
# wireworm [4] = experiment: Field efficacy against wireworm and impact on corn yield, vigor and stand (FIG. 1, 2); assay type: in vivo
# Method: Efficacy of chlorantraniliprole against wireworm (30 DAP) and impact on corn yield were tested (FIG. 1) based on data from 4 Locations. Unless indicated otherwise in this Example or in any other Example herein, “BASE ST” included Fludioxonil, Mefenoxam, Azoxystrobin, Thiabendazole (fungicides), Thiamethoxam (insecticide) and biological amendments (B. subtilis, and B. simplex). The BASE ST may also include other fungicides.
# Efficacy of chlorantraniliprole was also tested against high wireworm pressure locations for plant vigor and yield and stand protection (FIG. 2 A-B). “FST” indicates fungicide seed treatment.
# The chlorantraniliprole was applied at a concentration of 0.25 mg ai/seed and other commercially available insecticides and/or fungicides were applied at the labeled rates. […] In an embodiment, the BASE ST included thiamethoxam at 250 μg AI/seed.
# wireworms = experiment: Growth chamber wireworm bioassay on treated corn seed (FIG. 9); assay type: in vivo, Melanotus spp.; conditions: 250 to 750 μg AI/seed; corn at V3-V4; vs untreated check
# Method: In addition, the efficacy of corn seed treated with chlorantraniliprole to protect seeds and seedlings from soil pests such as wireworms was determined at a growth chamber. A total of 8 repetitions were conducted and the following evaluations were observed:
# Evaluations: 1. Emergence; 2. Wireworm damaged plants; 4. Wireworm mortality; 5. Fresh plan weight
# Bioassays were conducted in a growth chamber in using field-collected Melanotus spp. wireworms. […] weighted wireworms were individually placed into plastic pots containing filtered field-collected soil and one corn seed for a total of 48 wireworms in 8 pots for each treatment The containers were maintained at 20±2° C., 40 to 70% RH, and a photoperiod of 10:14 (L:D), and were watered daily.
# The following seed treatment combinations were used and the results are shown in FIG. 9: Chlorantraniliprole at 250 to 750 μg AI/seed; thiamethoxam (IST) at 250 μg AI/seed; and clothianidin (+Bacillus firmus 1-1582) at 1250 μg AI/seed.
# white grub = experiment: Efficacy against white grub and impact on corn yield (FIG. 3, 4); assay type: in vivo, Japanese Beetle larvae; conditions: added to BASE ST, compared to BASE ST alone
# black cutworms [5] = experiment: Field efficacy against high pressure of black cutworms, plant stand protection (FIG. 5, 6); assay type: in vivo, Agrotis ipsilon
# Method: as §1, §2
# [6] = seed treatment 250 μg AI/seed, 3rd instar black cutworms on corn leaf samples
# [7] = seed treatment 250 μg AI/seed, residual control
# [8] = seed treatment 500 μg AI/seed (clothianidin 500)
# [9] = Table 6, fields with constant wireworm pressure, N = 7
# [10] = added to BASE ST, compared to FST alone, high wireworm pressure
structure (smiles),measurement,setting,value
"CNC(=O)c1cc(Cl)cc(C)c1NC(=O)c1cc(Br)nn1-c1ncccc1Cl [Chlorantraniliprole, 3-bromo-N-[4-chloro-2-methyl-6-[(methylamino)carbonyl]phenyl]-1-(3-chloro-2-pyridinyl)-1H-pyrazole-5-carboxamide]",Mortality % 12 DAP,black cutworms [1]; [6],100.00%
same,Mortality % 39 DAP,black cutworms [1]; [7],32.95%
same,Mortality % 12 DAP,black cutworms [1]; [8],100.00%
same,Mortality % 39 DAP,black cutworms [1]; [8],31.25%
same,Mortality % 12 DAP,black cutworms [1]; seed treatment 750 μg AI/seed,100.00%
same,Mortality % 39 DAP,black cutworms [1]; seed treatment 750 μg AI/seed,21.11%
same,Mortality %,black cutworms [2]; seed treatment 250 μg AI/seed,100.00%
same,Mortality %,black cutworms [2]; [8],100.00%
same,Mortality %,black cutworms [2]; seed treatment 750 μg AI/seed,100.00%
same,Yield bu/ac,"wireworm [3]; Table 5, fields with wireworm pressure",172.3 bu/ac
same,Yield bu/ac,wireworm [3]; [9],164.3 bu/ac
same,corn grain yield,"wireworm [3]; locations with wireworm infestations, chlorantraniliprole 250 to 750 μg AI/seed alone or with thiamethoxam 250 μg AI/seed",increased corn grain yield
same,corn yield,"wireworm [4]; 0.25 mg ai/seed added to BASE ST, compared to BASE ST alone",yield increase
same,wireworm count per 10 plants,"wireworm [4]; 0.25 mg ai/seed added to BASE ST, compared to BASE ST alone, 30 DAP, 4 locations",significantly reduced
same,plant vigor,wireworm [4]; [10],significantly increased
same,stand protection,wireworm [4]; [10],protected stand
same,yield,"wireworm [4]; added to BASE ST, compared to FST alone, high wireworm pressure (FIG. 2A)",increased significantly
same,fresh plant weight,wireworms,significantly higher plant weight than the untreated check/control
same,grain yield,white grub,increased grain yield
same,white grub count per 10 plants,"white grub; 30 DAP, 3 locations",significantly reduced
same,stand and seedling protection against black cutworms,black cutworms [5]; 9 DAI (FIG. 6),increased healthier stand and longer seedling protection
same,reduction in plant mortality,"black cutworms [5]; compared to FST alone, black cutworm",62%
same,black cutworm damage to corn plants,"black cutworms [5]; high black cutworm pressure, 15 DAP",significantly reduced
"CN/C(=N\[N+](=O)[O-])NCc1cnc(Cl)s1 [Clothianidin, reference compound]",Mortality % 12 DAP,black cutworms [1]; [8],97.92%
same,Mortality % 39 DAP,black cutworms [1]; [8],25.00%
same,Mortality %,black cutworms [2]; [8],93.75%
"CN1COCN(Cc2cnc(Cl)s2)/C1=N\[N+](=O)[O-] [Thiamethoxam, reference compound]",Mortality % 12 DAP,black cutworms [1]; [6],95.83%
same,Mortality % 39 DAP,black cutworms [1]; [7],31.25%
same,Mortality %,black cutworms [2]; seed treatment 250 μg AI/seed,22.92%
same,Yield bu/ac,wireworm [3]; [9],173.3 bu/ac
same,runts,"wireworm [3]; seedling stage, wireworms, each active at 250 μg AI/seed",8.8%
